Here are results for two compounds from patent US20020009421A1, “Therapy following skin injury from exposure to ultraviolet radiation” (priority 2000, published 2002).

One assay has as its system sunburn. The experiment in a line: In Vivo Evaluation: sunburn in a human subject after about six hours of intense sunlight, oral self-administration. To be noted: for relief of pain: oral self-administration, adult with severe sunburn, celecoxib 100 mg. From the text: 1. Subject: An adult, person of light complexion whose skin had not been substantially exposed to strong sunlight for approximately six months.
2. Protocol: The subject was exposed to intense sunlight at a swimming pool for approximately six hours.
3. […] At that time the subject self-administered an oral dose of acetaminophen (Extra Strength Tylenol®) to relieve the pain. […] Later in the evening the subject was unable to sleep due to the continued pain. At that time the subject self-administered a 100 mg dose of Celebrex® (celecoxib). […] Approximately twelve hours later the subject took a second dose of celecoxib to relieve the onset of discomfort due to the sunburn.

Assay [1] has as its system UV radiation-induced tumor formation and UV-B mediated inflammatory response. The conditions noted are these: oral administration, cited from earlier work.
The next assay has as its system UV-B mediated injury. The conditions noted are these: cited from earlier work.

Consider `CC(=O)Nc1ccc(O)cc1` [acetaminophen], for which the relief of pain entry in the assay on sunburn was “no relief in pain”.

Turning to `Cc1ccc(-c2cc(C(F)(F)F)nn2-c2ccc(S(N)(=O)=O)cc2)cc1` [celecoxib, 4-[5-(4-methylphenyl)-3-(trifluoromethyl)-1H-pyrazol-1-yl]benzenesulfonamide], the tumor formation entry in assay [1] (animals chronically exposed to UV radiation) was “reduced tumor formation”. Besides, in assay [1] (following acute or chronic exposure to UV radiation), the “acute UV-B mediated inflammatory response involving increased cell proliferation and edema” value is recorded as “failed to inhibit the acute UV-B mediated inflammatory response”. Further, the “UV-B induced prostaglandin synthesis” value in assay [1] is on record as “block the UV-B induced prostaglandin synthesis”. In addition, in the assay with sunburn (100 mg oral dose of Celebrex, adult with sunburn), the “time to almost complete relief of pain following administration” value is not above 1 h. Moreover, the relief of pain result in the assay with sunburn is listed as “almost complete relief of pain”. Further, the “healing of the burn (blistering, peeling of surface skin)” value with sunburn (two oral doses of celecoxib about twelve hours apart, subject's report) is listed as “rapid healing of the burn with no blistering or peeling of surface skin”. Further, the “cutaneous inflammatory response after exposure of skin to UV-B radiation” value in the assay with UV-B mediated injury (oral administration) is reported as “failed to block the cutaneous inflammatory response”. Besides, the “parameters of UV-B mediated injury” value in the assay on UV-B mediated injury (topical application) is listed as “reduce many of the parameters of UV-B mediated injury”.
